Source: US20040198754A1, “Composition and method for appetite and craving suppression and mood enhancement” (Pro-Health, Inc., priority 2003, published 2004)

Assay: Individual human case reports of oral theobromine tablets (appetite, cravings, mood, energy, weight, side effects), with earlier use of commercial diet products
Type: in vivo
From the text: They lost 18 lbs., and did report having a headache. No other side effects were reported.
No other side effects were reported.
They lost 9 lbs. in 21 days.
They also took Metabolife 356® made by Metabolife International Inc. which contains a caffeine-ephedrine combination.
A person had been taking Xenadrine EFX (ephedrine free, contains synephrine) to try to stop smoking while losing weight, but with little effect on their appetite and nicotine craving. […] They discontinued use of theobromine over a weekend, and noted that the urge to smoke again became strong. […] They were also exercising, and despite quitting smoking at the same time, lost 4.5 pounds, and reported fitting into clothes that they hadn't been able to wear for several years.

[1] = person, 500 mg. theobromine 4 times per day for 21 days
[2] = person, 2 grams per day for 12 days
[3] = person, 3,250 mg. tablets per day for 10 days
[4] = person, 4, 250 mg. tablets four times per day for 21 days
[5] = person, up to 2 grams daily for 28 days
[6] = smoker, 750 mg. theobromine per day for three weeks

In the case of `Cn1cnc2c1c(=O)[nH]c(=O)n2C` [theobromine, 3,7-dimethylxanthine], the “craving for sweets (self-reported)” value (person with lifelong cravings for sweets, one 250 mg. tablet per day) is reported as “no craving for such sweets”, the “appetite (self-reported)” value (person, 500 mg. of Theobromine) is reported as “appetite suppression” and the “energy (self-reported)” value (person, 500 mg. of Theobromine) is reported as “good energy”. For the same compound, the “mood (self-reported)” value (person, 500 mg. of Theobromine) was “sense of well being”, the “appetite and food cravings (self-reported)” value [1] was “reduced appetite and food cravings” and the “energy (self-reported)” value [1] was “increased energy without a stimulant high”. For the same compound, the weight lost [1] was 8 lbs, the weight lost (person, 750 mg. theobromine per day for three weeks, also exercising and quitting smoking) was 4.5 pounds and the “appetite (self-reported)” value [2] was “less appetite”. The “energy, mood and thinking (self-reported)” value [2] was “more energy, improved mood and clearer thinking”, the weight loss [2] was 5 pound and the “appetite (self-reported)” value [3] was “reduced appetite”. For the same compound, the “energy (self-reported)” value [3] was “excellent energy”, the “mood (self-reported)” value [3] was “euphoric calmness to their mood” and the weight lost [3] was 8 lbs. For the same compound, the “appetite (self-reported)” value [4] was “reduced appetite”, the “mood and energy (self-reported)” value [4] was “elevated mood, more energy” and the weight lost [4] was 18 lbs. The “appetite (self-reported)” value [5] was “lowered appetite”, the “energy or mood (self-reported)” value [5] was “no energy or mood difference” and the weight lost (person, up to 2 grams daily, in 21 days) was 9 lbs. For the same compound, the “appetite (self-reported)” value [6] was “reduced appetite”, the “cravings for chocolate prior to menses (self-reported)” value [6] was “reduction in cravings for chocolate” and the “mood (self-reported)” value [6] was “much calmer and less angry”. For the same compound, the “urge to smoke (self-reported)” value [6] was “loss of the urge to smoke”.
